Values of other authors, collected in article PMC12443862, “The second life of Citrus bergamia: bioavailability analysis of a new formulation using waste-based microencapsulation as a valuable source of bioactive compounds” (Pharmacological Reports, 2025).

Set-up: method as in PMID 25200135
Conditions: hesperidin micronization (5.1 μm)

COc1ccc([C@@H]2CC(=O)c3c(O)cc(O[C@@H]4O[C@H](CO[C@@H]5O[C@@H](C)[C@H](O)[C@@H](O)[C@H]5O)[C@@H](O)[C@H](O)[C@H]4O)cc3O2)cc1O [hesperidin]
Increase of flavanone's bioavailability compared to conventional hesperidin (32.8 μm): 2 fold
